Test results taken from the NIST ThermoML archive (doi:10.1016/j.jct.2019.02.025).

Legend:
[1] = for mass density / kinematic viscosity: 101.33 kPa, Liquid; for mass density: Vibrating tube method; for surface tension liquid-gas / kinematic viscosity: Surface laser light scattering (SLLS)
[2] = refractive index (Na D-line) (dimensionless); conditions: 101.33 kPa, Liquid, Standard Abbe refractometry

CCCCCCCCCCCC [dodecane]
[1]
Conditions	kinematic viscosity [m2/s]	mass density [kg/m3]	surface tension liquid-gas [mN/m]
293.15 K	–	748.81	–
298.16 K	1.76e-06	–	23.37
303.15 K	–	741.42	–
313.15 K	–	734.08	–
323.15 K	–	726.74	–
323.23 K	1.25e-06	–	21.9
333.15 K	–	719.38	–
343.15 K	–	711.32	–
348.21 K	9.24e-07	–	20.09
353.15 K	–	704.62	–
363.15 K	–	697.21	–
373.15 K	–	689.75	–
373.29 K	7.24e-07	–	18.02
383.15 K	–	682.25	–
393.15 K	–	674.68	–
398.25 K	5.87e-07	–	16.1
403.15 K	–	667.04	–
413.15 K	–	659.32	–
423.15 K	–	651.53	–
423.26 K	4.89e-07	–	14.25
433.15 K	–	643.6	–
443.15 K	–	635.55	–
448.27 K	4.16e-07	–	12.32
453.15 K	–	627.38	–
463.15 K	–	619.09	–
473.15 K	–	610.6	–

CCCCCCCCCC(=O)OCC [ethyl decanoate]
Conditions	kinematic viscosity [m2/s]	mass density [kg/m3]	refractive index	surface tension liquid-gas [mN/m]
[1], 293.15 K	–	864.08	–	–
[1], 298.13 K	2.2e-06	–	–	23.87
[1], 303.15 K	–	855.82	–	–
[1], 313.15 K	–	847.62	–	–
[1], 323.11 K	1.59e-06	–	–	22.57
[1], 323.15 K	–	839.41	–	–
[1], 333.15 K	–	830.71	–	–
[1], 343.15 K	–	822.79	–	–
[1], 348.1 K	1.22e-06	–	–	21.38
[1], 353.15 K	–	814.9	–	–
[1], 363.15 K	–	806.72	–	–
[1], 373.15 K	–	798.5	–	–
[1], 373.17 K	9.55e-07	–	–	19.81
[1], 383.15 K	–	790.26	–	–
[1], 393.15 K	–	781.97	–	–
[1], 398.16 K	7.48e-07	–	–	18.26
[1], 403.15 K	–	773.63	–	–
[1], 413.15 K	–	765.29	–	–
[1], 423.12 K	6.18e-07	–	–	16.8
[1], 423.15 K	–	756.81	–	–
[1], 433.15 K	–	748.26	–	–
[1], 443.15 K	–	739.7	–	–
[1], 448.1 K	4.92e-07	–	–	14.86
[1], 453.15 K	–	731.01	–	–
[2], 278.15 K	–	–	1.43213	–
[2], 283.15 K	–	–	1.43	–
[2], 288.15 K	–	–	1.42789	–
[2], 293.15 K	–	–	1.42577	–
[2], 298.15 K	–	–	1.42366	–
[2], 303.15 K	–	–	1.42155	–
[2], 308.15 K	–	–	1.41944	–
[2], 313.15 K	–	–	1.41729	–
[2], 318.15 K	–	–	1.41512	–
[2], 323.15 K	–	–	1.41297	–
[2], 328.15 K	–	–	1.41084	–
[2], 333.15 K	–	–	1.40873	–
[2], 338.15 K	–	–	1.40661	–
[2], 343.15 K	–	–	1.40451	–
[2], 348.15 K	–	–	1.40241	–
[2], 353.15 K	–	–	1.40034	–
[2], 358.15 K	–	–	1.39826	–

CCCCCCCCCCCC(=O)OCC [ethyl dodecanoate]
Conditions	kinematic viscosity [m2/s]	mass density [kg/m3]	refractive index	surface tension liquid-gas [mN/m]
[1], 293.15 K	–	862	–	–
[1], 298.03 K	3.11e-06	–	–	26.84
[1], 303.15 K	–	853.15	–	–
[1], 313.15 K	–	845.31	–	–
[1], 323.15 K	1.98e-06	838.31	–	24.54
[1], 333.15 K	–	830.53	–	–
[1], 343.15 K	–	822.74	–	–
[1], 348.25 K	1.44e-06	–	–	22.85
[1], 353.15 K	–	814.95	–	–
[1], 363.15 K	–	807.16	–	–
[1], 373.15 K	–	799.37	–	–
[1], 373.4 K	1.09e-06	–	–	21.17
[1], 383.15 K	–	791.55	–	–
[1], 393.15 K	–	783.72	–	–
[1], 398.14 K	8.72e-07	–	–	19.32
[1], 403.15 K	–	775.85	–	–
[1], 413.15 K	–	767.94	–	–
[1], 423.13 K	7.19e-07	–	–	17.83
[1], 423.15 K	–	759.99	–	–
[1], 433.15 K	–	751.6	–	–
[1], 443.15 K	–	744.05	–	–
[1], 448.22 K	5.91e-07	–	–	15.95
[1], 453.15 K	–	735.97	–	–
[2], 278.15 K	–	–	1.43791	–
[2], 283.15 K	–	–	1.43583	–
[2], 288.15 K	–	–	1.43375	–
[2], 293.15 K	–	–	1.43169	–
[2], 298.15 K	–	–	1.42961	–
[2], 303.15 K	–	–	1.42755	–
[2], 308.15 K	–	–	1.42547	–
[2], 313.15 K	–	–	1.42335	–
[2], 318.15 K	–	–	1.42125	–
[2], 323.15 K	–	–	1.41915	–
[2], 328.15 K	–	–	1.41707	–
[2], 333.15 K	–	–	1.41501	–
[2], 338.15 K	–	–	1.41295	–
[2], 343.15 K	–	–	1.4109	–
[2], 348.15 K	–	–	1.40886	–
[2], 353.15 K	–	–	1.40684	–
[2], 358.15 K	–	–	1.40479	–

CCCCCCC(=O)OCC [ethyl heptanoate]
Conditions	kinematic viscosity [m2/s]	mass density [kg/m3]	refractive index	surface tension liquid-gas [mN/m]
[1], 293.15 K	–	869.42	–	–
[1], 298.25 K	1.33e-06	–	–	24.88
[1], 303.15 K	–	860.36	–	–
[1], 313.15 K	–	851.32	–	–
[1], 323.03 K	9.55e-07	–	–	23.07
[1], 323.15 K	–	842.26	–	–
[1], 333.15 K	–	833.07	–	–
[1], 343.15 K	–	824.1	–	–
[1], 347.8 K	7.3e-07	–	–	20.71
[1], 353.15 K	–	814.99	–	–
[1], 363.15 K	–	805.81	–	–
[1], 372.91 K	5.73e-07	–	–	18.61
[1], 373.15 K	–	796.55	–	–
[1], 383.15 K	–	787.24	–	–
[1], 393.15 K	–	777.81	–	–
[1], 397.51 K	4.7e-07	–	–	16.27
[1], 403.15 K	–	768.3	–	–
[1], 413.15 K	–	758.65	–	–
[1], 421.88 K	3.95e-07	–	–	14.43
[1], 423.15 K	–	748.89	–	–
[1], 433.15 K	–	738.95	–	–
[1], 443.15 K	–	728.84	–	–
[1], 448 K	3.39e-07	–	–	12.31
[2], 278.15 K	–	–	1.42006	–
[2], 283.15 K	–	–	1.41784	–
[2], 288.15 K	–	–	1.41562	–
[2], 293.15 K	–	–	1.41341	–
[2], 298.15 K	–	–	1.41119	–
[2], 303.15 K	–	–	1.40896	–
[2], 308.15 K	–	–	1.40673	–
[2], 313.15 K	–	–	1.40445	–
[2], 318.15 K	–	–	1.40216	–
[2], 323.15 K	–	–	1.39988	–
[2], 328.15 K	–	–	1.39761	–
[2], 333.15 K	–	–	1.39535	–
[2], 338.15 K	–	–	1.39311	–
[2], 343.15 K	–	–	1.39088	–
[2], 348.15 K	–	–	1.38866	–
[2], 353.15 K	–	–	1.38645	–
[2], 358.15 K	–	–	1.38421	–

CCCCCC(=O)OCC [ethyl hexanoate]
Conditions	kinematic viscosity [m2/s]	mass density [kg/m3]	refractive index	surface tension liquid-gas [mN/m]
[1], 293.15 K	–	871.07	–	–
[1], 298.26 K	1.13e-06	–	–	24.65
[1], 303.15 K	–	861.61	–	–
[1], 313.15 K	–	851.2	–	–
[1], 323.06 K	8.14e-07	–	–	22.27
[1], 323.15 K	–	842.71	–	–
[1], 333.15 K	–	833.25	–	–
[1], 343.15 K	–	823.72	–	–
[1], 348.04 K	6.25e-07	–	–	20.08
[1], 353.15 K	–	814.13	–	–
[1], 363.15 K	–	804.45	–	–
[1], 372.96 K	5e-07	–	–	17.81
[1], 373.15 K	–	794.69	–	–
[1], 383.15 K	–	784.83	–	–
[1], 393.15 K	–	774.87	–	–
[1], 397.73 K	4.11e-07	–	–	15.68
[1], 403.15 K	–	764.77	–	–
[1], 413.15 K	–	754.53	–	–
[1], 422.94 K	3.46e-07	–	–	13.51
[1], 423.15 K	–	744.07	–	–
[1], 447.88 K	3.03e-07	–	–	11.43
[2], 278.15 K	–	–	1.41438	–
[2], 283.15 K	–	–	1.4121	–
[2], 288.15 K	–	–	1.40982	–
[2], 293.15 K	–	–	1.40753	–
[2], 298.15 K	–	–	1.40525	–
[2], 303.15 K	–	–	1.40295	–
[2], 308.15 K	–	–	1.40063	–
[2], 313.15 K	–	–	1.39829	–
[2], 318.15 K	–	–	1.39594	–
[2], 323.15 K	–	–	1.3936	–
[2], 328.15 K	–	–	1.39128	–
[2], 333.15 K	–	–	1.38897	–
[2], 338.15 K	–	–	1.38667	–
[2], 343.15 K	–	–	1.38438	–
[2], 348.15 K	–	–	1.3821	–
[2], 353.15 K	–	–	1.37983	–
[2], 358.15 K	–	–	1.37754	–
